The record followed here is paper PMC3201722 (NMR in biomedicine, 2011).

The structures appear in SMILES notation.

This assay concerns the target T1, choline kinase (CK) [EC 2.7.1.32] (Saccharomyces cerevisiae, UniProt P20485).
T1 sequence (P20485 2-582): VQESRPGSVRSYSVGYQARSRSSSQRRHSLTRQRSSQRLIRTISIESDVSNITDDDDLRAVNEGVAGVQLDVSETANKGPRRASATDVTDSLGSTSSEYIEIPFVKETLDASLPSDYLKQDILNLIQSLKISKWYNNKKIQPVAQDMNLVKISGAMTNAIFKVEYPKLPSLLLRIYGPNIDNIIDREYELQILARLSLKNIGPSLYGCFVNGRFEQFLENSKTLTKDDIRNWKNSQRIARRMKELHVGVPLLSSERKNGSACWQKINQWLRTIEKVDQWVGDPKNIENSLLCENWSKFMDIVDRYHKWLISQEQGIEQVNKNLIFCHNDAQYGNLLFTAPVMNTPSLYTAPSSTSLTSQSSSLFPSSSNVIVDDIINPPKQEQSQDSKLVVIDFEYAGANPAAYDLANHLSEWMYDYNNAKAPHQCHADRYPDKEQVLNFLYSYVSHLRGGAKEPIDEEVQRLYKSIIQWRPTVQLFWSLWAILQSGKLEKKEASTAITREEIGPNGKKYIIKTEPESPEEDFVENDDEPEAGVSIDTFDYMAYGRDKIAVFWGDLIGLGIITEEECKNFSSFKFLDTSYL
Briefly: 1H NMR. Type of assay: biochemical.

As for `CN1CC[C@H](c2c(O)cc(O)c3c(=O)cc(-c4ccccc4Cl)oc23)[C@H](O)C1` [flavopiridol], the IC50 (usually the midpoint of a concentration-inhibition curve) is below 500 nM.
